In brackets after ≈: the same amount, converted by molar mass.
What was measured:
Format in all cases: functional
Micrococcus luteus = test: Antibacterial activity against Micrococcus luteus QDIO-3 assessed as inhibition of bacterial growth by serial dilution method
Vibrio parahaemolyticus = test: Antibacterial activity against Vibrio parahaemolyticus QDIO-8 assessed as inhibition of bacterial growth by serial dilution method
Escherichia coli = test: Antibacterial activity against Escherichia coli EMBLC-1 assessed as inhibition of bacterial growth by serial dilution method
Vibrio anguillarum = test: Antibacterial activity against Vibrio anguillarum QDIO-6 assessed as inhibition of bacterial growth by serial dilution method
Pseudomonas aeruginosa = test: Antibacterial activity against Pseudomonas aeruginosa QDIO-4 assessed as inhibition of bacterial growth by serial dilution method
Edwardsiella tarda = test: Antibacterial activity against Edwardsiella tarda QDIO-2 assessed as inhibition of bacterial growth by serial dilution method
Aeromonas hydrophila = test: Antibacterial activity against Aeromonas hydrophila QDIO-1 assessed as inhibition of bacterial growth by serial dilution method
Vibrio alginolyticus = test: Antibacterial activity against Vibrio alginolyticus QDIO-5 assessed as inhibition of bacterial growth by serial dilution method

| Structure (SMILES) | MIC (Micrococcus luteus) [µg/mL] | MIC (Vibrio parahaemolyticus) [µg/mL] | MIC (Escherichia coli) [µg/mL] | MIC (Vibrio anguillarum) [µg/mL] | MIC (Pseudomonas aeruginosa) [µg/mL] | MIC (Edwardsiella tarda) [µg/mL] | MIC (Aeromonas hydrophila) [µg/mL] | MIC (Vibrio alginolyticus) [µg/mL] |
| --- | --- | --- | --- | --- | --- | --- | --- | --- |
| C[C@@H]1C[C@@H]2C=C[C@H](C)[C@H](/C=C/C=C/C(=O)O)[C@H]2[C@@](C)(O)C1 | > 64 | 64 (≈ 220 µM) | 64 (≈ 220 µM) | > 64 | > 64 | > 64 | > 64 | 32 (≈ 110 µM) |
| Cc1ccc2c(c1/C=C/C=C/C(=O)O)[C@H](C)C[C@H](C)[C@@H]2O | 64 (≈ 223 µM) | 32 (≈ 112 µM) | 64 (≈ 223 µM) | 4 (≈ 14 µM) | > 64 | > 64 | 32 (≈ 112 µM) | 32 (≈ 112 µM) |
| Cc1ccc2c(c1/C=C/C=C/C(=O)O)[C@H](C)C[C@H](CO)C2 | > 64 | 64 (≈ 223 µM) | > 64 | 4 (≈ 14 µM) | > 64 | > 64 | > 64 | > 64 |
| CO[C@@]1(C)C=C[C@H]2C[C@@H](CO)C[C@@H](C)[C@@H]2[C@H]1/C=C/C=C/C(=O)O | > 64 | > 64 | 8 (≈ 25 µM) | > 64 | > 64 | > 64 | > 64 | 32 (≈ 99.9 µM) |
| O=C(N[C@H](CO)[C@H](O)c1ccc([N+](=O)[O-])cc1)C(Cl)Cl [CHLORAMPHENICOL] | 0.5 (≈ 1.55 µM) | 1 (≈ 3.09 µM) | 1 (≈ 3.09 µM) | 2 (≈ 6.19 µM) | 1 (≈ 3.09 µM) | 2 (≈ 6.19 µM) | 1 (≈ 3.09 µM) | 2 (≈ 6.19 µM) |
| Cc1cc(CO)cc2ccc(CO)c(/C=C\C=C\C(=O)O)c12 | > 64 | > 64 | > 64 | > 64 | > 64 | > 64 | > 64 | > 64 |
| Cc1ccc2c(c1/C=C/C=C/C(=O)O)[C@H](C)C[C@@](C)(O)C2=O | > 64 | 64 (≈ 213 µM) | 64 (≈ 213 µM) | 4 (≈ 13.3 µM) | > 64 | > 64 | > 64 | > 64 |
| C[C@H]1C=C[C@H]2C[C@@H](CO)C[C@](C)(O)[C@@H]2[C@H]1/C=C/C=C/C(=O)O | > 64 | > 64 | > 64 | > 64 | 4 (≈ 13.1 µM) | > 64 | > 64 | > 64 |
| C[C@@H]1C[C@H](CO)C[C@@H]2C=C[C@@](C)(O)[C@](O)(/C=C/C=C/C(=O)O)[C@@H]12 | > 64 | 64 (≈ 199 µM) | > 64 | 8 (≈ 24.8 µM) | > 64 | > 64 | > 64 | 32 (≈ 99.3 µM) |
| Cc1cc(C)c2c(/C=C/C=C/C(=O)O)c(CO)ccc2c1 | > 64 | 64 (≈ 227 µM) | > 64 | > 64 | > 64 | > 64 | 64 (≈ 227 µM) | 32 (≈ 113 µM) |
| Cc1ccc2cc(CO)cc(C)c2c1/C=C/C=C/C(=O)O | 2 (≈ 7.08 µM) | 32 (≈ 113 µM) | 64 (≈ 227 µM) | > 64 | > 64 | 64 (≈ 227 µM) | > 64 | 16 (≈ 56.7 µM) |
| CO[C@]1(C)C=C[C@H]2C[C@@H](CO)C[C@@H](C)[C@@H]2[C@H]1/C=C/C=C/C(=O)O | > 64 | 64 (≈ 200 µM) | > 64 | 8 (≈ 25 µM) | > 64 | > 64 | > 64 | > 64 |
| CC1C=C[C@H]2C[C@@H](CO)C[C@@H](C)[C@@H]2[C@H]1/C=C/C=C/C(=O)O (stereo not given in full) | 8 (≈ 27.5 µM) | > 64 | 64 (≈ 220 µM) | > 64 | > 64 | > 64 | 64 (≈ 220 µM) | 8 (≈ 27.5 µM) |
| Cc1cc(CO)cc2ccc(CO)c(/C=C/C=C/C(=O)O)c12 | > 64 | > 64 | > 64 | > 64 | > 64 | > 64 | > 64 | 64 (≈ 215 µM) |
| Cc1ccc2c(c1/C=C/C=C/C(=O)O)[C@H](C)C[C@@](C)(O)C2 | > 64 | > 64 | > 64 | > 64 | 16 (≈ 55.9 µM) | > 64 | > 64 | > 64 |
